In data set [1] the test system is calf thymus DNA (ctDNA). The experiment in a line: Terbium (Tb3+) luminescent biosensor detection of induced DNA damage. The class given is biochemical. As to conditions: for Tb luminescence enhancement (induced DNA damage): ctDNA incubated with compound 24 h, emission 545 nm, excitation 270 nm, compared with ctDNA-Tb mixture. The text has this: Luminescence studies were accomplished in order to examine the possible DNA interaction with the studied compounds. Many luminescent biosensors are reported in literature for studying the possibility of DNA interaction with small molecules. […] Figure 5 presents a schematic diagram for the fluorometric detection of the induced DNA damage using Tb biosensor. Tb^3+ ion in the Tb luminescent probe is a trivalent lanthanide cation having low intrinsic luminescence in aqueous solutions[45]^,[46]. When Tb biosensor is added to a solution of DNA, it interacts differently with double-stranded DNA (dsDNA) and single-stranded DNA (ssDNA). With dsDNA, Tb^3+ ions are electrostatically attracted to the negatively charged phosphate backbone of the DNA. […] Therefore, the assessed compound damages dsDNA, ssDNA sites would be formed opposite to the site of damage and Tb^3+ would directly coordinate to the unpaired nucleobases in this single-stranded site.
For investigating the DNA interaction potential of the fourteen studied compounds, calf thymus DNA (ctDNA) was incubated with each compound for 24 h and then Tb was added to each mixture. Doxorubicin (DOX), a commonly used reference for DNA damaging agent was used and treated the same condition as the studied compounds. Tb luminescent intensity was measured at λmax = 545 nm after excitation at λmax = 270 nm.
Several concentrations within the range of 0.1 pM–200.0 μM of each of the studied compounds were incubated with ctDNA for 24 h. After which, Tb solution was added to aliquots of such mixtures and the luminescence intensity was recorded. Figure 7 presents Tb luminescence intensity as a function of the compound concentration for various compound/ctDNA/Tb mixtures. At minimum concentration of the studied compounds, minimum Tb luminescence was recorded. This reflects that the DNA molecule is undamaged, intact and acquiring a double helical structure. In this conformation, Tb ions are electrostatically attracted to the negatively charged DNA-phosphate backbone showing no increase in its luminescence. For solutions with higher concentrations of compounds 5b, 5h, and 5j (Figure 7a,c,and d). Tb fluorescence increased proportionally with the concentration until a concentration of 100 and 60 μM for compounds 5b, 5h, and 5j, respectively, where no further increase in the fluorescence occurs. This reflects that more DNA damage is induced with increasing concentrations of the three compounds. At concentrations higher than 100 and 60 μM for compounds 5b, 5h, and 5j, respectively, Tb luminescence remains constant at high fluorescence levels. […] Table 1 illustrates the analytical parameters elucidated as shown in Figure 7 for the quantification of the induced DNA damage by the studied compounds. The linearity parameters were calculated from the calibration curve in Figure 7-inset in order to obtain the minimum concentration of the studied compounds that would induce DNA damage.
Fluorescence measurements: Fluorescence spectra were measured between 290 and 800 nm with excitation at 270 nm of 100 µL solutions in a 1 cm path length Suprasil quartz fluorescence cuvette.
The PerkinElmer LS 55 fluorescence spectrophotometer was used to measure the fluorescence. After 24 h of incubation in buffer solution (40 mM Tris, 10 mM NaCl, pH 7.5), aliquots of each DNA-Compound mixture were combined with TbCl3 to confirm DNA damage. The final concentrations were […] ctDNA, 3 mM TbCl3, and 50 µM of each compound in buffer solution (40 mM Tris, 10 mM NaCl, pH 7.5). Calf thymus DNA (ctDNA) was combined with various quantities of each substance, ranging from 0.1 pM to 200 µM, for the experiment. The ultimate concentrations of […] ctDNA and 3 mM were achieved by adding Tb3 + solution to the ctDNA/compound combinations in buffer solution (40 mM Tris, 10 mM NaCl, pH 7.5) after 24 h of incubation.[44]
All chemicals, solvents, media and kits were purchased from commercial suppliers. […]

The subject of data set [2] is human colon cancer (HCT-116). The experiment in a line: MTT cytotoxicity assay, HCT-116. The class given is cell-based. Particulars: 24 h treatment, read-out: IC50 against HCT-116. The protocol: (§1) All chemicals, solvents, media and kits were purchased from commercial suppliers.
(§2) In vitro anticancer screening […]
(§3) against three cancer cell lines namely: hepatocellular carcinoma (HepG2), human breast adenocarcinoma (MCF-7) and human colon cancer (HCT -116) utilizing MTT assay2. Compounds […]
(§4) 5b and 5h were screened for their effects on the normal breast cell line MCF‐10a. Cells at a density of 1 × 104 were seeded in a 96‐well plate at 37°C for 48 hr under 5% CO2. After incubation, the cells were treated with different concentrations of the prepared molecules and incubated for 24 hr.
(§5) MTT dye was added after 24 h of drug treatment and incubated for 4 h at 37°C. Also, 100 μl of dimethyl sulphoxide was added to each well to dissolve the purple formazan formed. The color intensity of the formazan product, which represents the growth condition of the cells, was quantified using an enzyme‐linked immunosorbent assay (ELISA) plate reader at 570 nm. The experiments were carried out with at least three replicates and they were repeated at least three […]
(§6) *: Statistically significant at p ≤ 0.05
(§7) Means with any Common letter (a-e) are not significant (OR Means with totally Different letters (a-e) are significant)
For orientation: Formazan colour is commonly taken as a measure of viable cells.

The subject of data set [3] is hepatocellular carcinoma (HepG2). The experiment in a line: MTT cytotoxicity assay, HepG2. Type of data set: cell-based. As to conditions: Homo sapiens, 24 h treatment, read-out: IC50 against HepG2. The protocol: (Supplementary file). Compounds 5b and 5h were screened for their effects on the normal breast cell line MCF‐10a. Cells at a density of 1 × 104 were seeded in a 96‐well plate at 37 °C for 48 h under 5% CO2. After incubation, the cells were treated with different concentrations of the prepared molecules and incubated for 24 h. MTT dye was added after 24 h of drug treatment and incubated for 4 h at 37 °C. Also, 100 μl of dimethyl sulphoxide was added to each well to dissolve the purple formazan formed. The colour intensity of the formazan product, which represents the growth condition of the cells, was quantified using an enzyme‐linked immunosorbent assay (ELISA) plate reader at 570 nm. The experiments were carried out with at least three replicates and they were repeated at least three times.
as §1, §2, §3, §4, §5, §6, §7

Regarding `O=C1C(=Nn2cc(-c3ccc4ccccc4c3)n(Cc3ccccc3)c2=S)c2cccc3cccc1c23` [5m, 2-((3-Benzyl-4-(naphthalen-2-yl)-2-thioxo-2,3-dihydro-1H-imidazol-1-yl)imino)-acenaphthylen-1(2H)-one], the melting point (as a rule, the temperature, or range, at which the solid turns liquid) fell in the range of 332 to 334 °C.
In turn, `COc1cccc(-n2c(-c3ccccc3)cn(N=C3C(=O)c4cccc5cccc3c45)c2=S)c1` [5e, 2-((3-(3-Methoxyphenyl)-4-phenyl-2-thioxo-2,3-dihydro-1H-imidazol-1-yl)imino)-acenaphthylen-1(2H)-one] registered a melting point of 212 to 214 °C. Besides, the “Tb luminescence enhancement (induced DNA damage)” value (“Tb luminescence enhancement” for short) in data set [1] is reported as “significant enhancement”. For the same compound, in data set [1] (ctDNA, 24 h incubation), the “Concentration at which Tb luminescence stops increasing (maximum DNA damage)” value was found to be 80 µM, the “Concentration up to which no enhancement of Tb luminescence intensity occurs” value is 20 µM, the “LOD (limit of detection; minimum concentration inducing detectable damage in ctDNA)” value is on record as 14.2 nM and the “LOQ (limit of quantitation)” value is 46.9 nM.
Regarding `COc1cccc(-n2c(-c3ccc(Cl)cc3)cn(N=C3C(=O)c4cccc5cccc3c45)c2=S)c1` [5j, 2-((4-(4-Chlorophenyl)-3-(3-methoxyphenyl)-2-thioxo-2,3-dihydro-1H-imidazol-1-yl)-imino)acenaphthylen-1(2H)-one], the melting point lay within 282 to 284 °C. The “Tb luminescence enhancement” value in data set [1] is “significant enhancement”. In addition, in data set [1] (ctDNA, 24 h incubation), the “Concentration at which Tb luminescence stops increasing (maximum DNA damage)” value was found to be 60 µM, the “LOD (limit of detection; minimum concentration inducing detectable damage in ctDNA)” value worked out at 12.7 nM and the “LOQ (limit of quantitation)” value is on record as 42.4 nM. In addition, the IC50 (as a rule, the concentration that inhibits the measured activity by half) in data set [2] came out at 10.8 µM. Further, the IC50 in data set [3] worked out at 7.9 µM.
`Cn1c(-c2ccccc2)cn(N=C2C(=O)c3cccc4cccc2c34)c1=S` [5a, 2-((3-Methyl-4-phenyl-2-thioxo-2,3-dihydro-1H-imidazol-1-yl)imino)acenaphthylen-1(2H)-one]: the melting point lay within 220 to 222 °C.
Same read-out and setting: the result for `O=C1C(=Nn2cc(-c3ccccc3)n(Cc3ccccc3)c2=S)c2cccc3cccc1c23` [5c, 2-((3-Benzyl-4-phenyl-2-thioxo-2,3-dihydro-1H-imidazol-1-yl)imino)-acenaphthylen-1(2H)-one] reads 212 to 214 °C.
In turn, `C=CCn1c(-c2ccc3ccccc3c2)cn(N=C2C(=O)c3cccc4cccc2c34)c1=S` [5n, 2-((3-Allyl-4-(naphthalen-2-yl)-2-thioxo-2,3-dihydro-1H-imidazol-1-yl)imino)-acenaphthylen-1(2H)-one] displayed a melting point of 230 to 232 °C. Further, the “Tb luminescence enhancement” value in data set [1] is “minimum enhancement”.
`Cn1c(-c2ccc3ccccc3c2)cn(N=C2C(=O)c3cccc4cccc2c34)c1=S` [5l, 2-((3-Methyl-4-(naphthalen-2-yl)-2-thioxo-2,3-dihydro-1H-imidazol-1-yl)imino)-acenaphthylen-1(2H)-one] had a melting point of 240 to 242 °C.
On the same count and under the same terms, next, `Cn1c(-c2ccc(Cl)cc2)cn(N=C2C(=O)c3cccc4cccc2c34)c1=S` [5g, 2-((4–(4-Chlorophenyl)-3-methyl-2-thioxo-2,3-dihydro-1H-imidazol-1-yl)imino)-acenaphthylen-1(2H)-one]: 262 to 264 °C.
`C=CCn1c(-c2ccccc2)cn(N=C2C(=O)c3cccc4cccc2c34)c1=S` [5f, 2-((3-Allyl-4-phenyl-2-thioxo-2,3-dihydro-1H-imidazol-1-yl)imino)acenaphthylen-1(2H)-one] showed a melting point of 212 to 214 °C. Besides, in data set [1], the “Tb luminescence enhancement” value is recorded as “minimum enhancement”.
On the same counts, the results for `C=CCn1c(-c2ccc(Cl)cc2)cn(N=C2C(=O)c3cccc4cccc2c34)c1=S` [5k, 2-((3-Allyl-4-(4-chlorophenyl)-2-thioxo-2,3-dihydro-1H-imidazol-1-yl)imino)-acenaphthylen-1(2H)-one] are 262 to 264 °C and “minimum enhancement”.
The compound `O=C1C(=Nn2cc(-c3ccc(Cl)cc3)n(Cc3ccccc3)c2=S)c2cccc3cccc1c23` [5i, 2-((3-Benzyl-4-(4-chlorophenyl)-2-thioxo-2,3-dihydro-1H-imidazol-1-yl)imino)-acenaphthylen-1(2H)-one] registered a melting point of 260 to 262 °C.
On the same count and under the same terms, the result for `O=C1C(=Nn2cc(-c3ccccc3)n(C3CCCCC3)c2=S)c2cccc3cccc1c23` [5d, 2-((3-Cyclohexyl-4-phenyl-2-thioxo-2,3-dihydro-1H-imidazol-1-yl)imino)-acenaphthylen-1(2H)-one] reads 192 to 194 °C.
